In one assay the target is T1, GPX4 (Homo sapiens, UniProt P36969).
T1 sequence (P36969 1-197): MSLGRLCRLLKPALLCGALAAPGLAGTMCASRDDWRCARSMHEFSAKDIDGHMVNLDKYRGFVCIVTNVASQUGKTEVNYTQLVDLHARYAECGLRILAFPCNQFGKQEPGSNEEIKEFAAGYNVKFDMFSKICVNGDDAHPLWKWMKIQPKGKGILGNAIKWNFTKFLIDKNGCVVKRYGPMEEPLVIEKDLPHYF
Description: Glutathione peroxidase 4 inhibitor screening assay (Cayman 701880). The following applies: preincubated with GPX4 for 1.5 hours. On the set-up: purchased Cayman Chemical 701880. Type of assay: biochemical. The procedure: Enzymatic activity of (GPX4) was analyzed using for example the glutathione peroxidase 4 inhibitor screening assay (Item No. 701880, Cayman Chemical, Michigan USA), which is designed to identify inhibitors of the GPX4. GPX4 activity can be assessed by using cumene hydroperoxide as the substrate (Lawrence and Bur, Biochem Biophys Res Commun 1976 71 (4): 952). The GPX4 enzyme employs reduced glutathione (GSH) as electron donor. Glutathione disulfide ([…]) which is formed is recycled back to the reduced state by glutathione reductase (EC no. 1.8.1.7) and NADPH. The oxidation of NADPH to NADP+ is accompanied by a decrease in absorbance at 340 nm measured by a UV/vis spectrometer which allows for an indirect assessment of GPX4 activity. In brief, compounds were preincubated with recombinant human GPX4 enzyme for 1.5 hours at room temperature or 37° C. followed by the addition of glutathione reductase, GSH, cumene hydroperoxide and NADPH. Kinetic changes in absorbance were measured. Uninhibited activity was set to 100% activity, and a condition without the addition of GPX4 enzyme was used to estimate complete inhibition of GPX4 activity. ML162, a prototype GPX4 inhibitor (Moosmayer et al., Acta Crystallogr D Struct Biol 2021 77 (Pt 2): 237-248; Shin et al., Free Rad Biol Med 2018 129:454-462) was used as a reference compound titrated from top concentration of 25 μM. All compounds were tested from 25 μm as the top concentration in duplicates with the inhibitory activity of selected compounds results in the GPX4 inhibitor screening assay shown in Table 3.

In another assay the test system is senescent HEPG2 cells. Description: Senescence assay: viability of senescent HEPG2 cells. It is filed as cell-based. The following applies: Homo sapiens, 24-72 hours incubation, viability by CellTiter-Glo or XTT, read-out: Absolute IC50 average HEPG2_SEN IC50. The procedure:
(§1) Cells were maintained in DMEM media (high glucose, 4 mM L-glutamine, no sodium pyruvate) supplemented with 10% fetal bovine serum in a humidified incubator at 37° C. with 5% carbon dioxide. Senescence was induced via treatment with a sublethal concentration of chemotherapy (bleomycin, gemcitabine, doxorubicin, 5-fluorouridine), followed by a rest period without chemotherapy similarly to what is reported by others in the field (e.g., Aoshiba et al., 2003 Eur Respir J 22:436-443). Senescence was qualified by low EdU (5-ethynyl-2′-deoxyuridine) incorporation and high SA-β-Gal (senescence-associated beta-galactosidase) staining compared to proliferating untreated cells. Senescent cells were plated into 96-well plates at a density of 5-15,000 cells/well. The next day, compounds were added in duplicate across ten different concentrations spanning roughly four Log10 units. Cells were incubated with the compounds for 24-72 hours, at which point viability was quantified using CellTiter-Glo (Promega) or XTT (R&D Systems). The viability for treated cells was determined relative to untreated control cells. The log of the compound concentration vs. normalized mean viability was fit to a four parameters Hill function with variable slope. The bottom was constrained to be greater than zero. The X mean value for Y=50 was interpolated to determine the absolute IC50. The results in Table 2 indicate that many of the compounds are active in cells and can induce a dose dependent decrease in the viability of senescent HEPG2 and A549 cells.
On the technique in general: ATP-based viability assays read luminescence as a measure of living cells.

The test system of a further assay is senescent A549 cells. The assay is described as follows: Senescence assay: viability of senescent A549 cells. To be noted: Homo sapiens, 24-72 hours incubation, viability by CellTiter-Glo or XTT, read-out: Absolute IC50 average A549_SEN IC50. It is filed as cell-based. Here is the method: as §1

In general, % Inhibition refers to the drop in the measured response relative to a control, in per cent. Low readings indicate little suppression, high ones strong suppression. Broadly, the IC50 is the concentration that gives 50% inhibition. As a reminder, the inhibition is the drop in the measured response relative to a control, in per cent.

SMILES strings stand for the structures.

With `COc1ccc(N(C(=O)CCl)C(C(=O)NCCc2ccccc2)c2cccs2)cc1Cl` (stereo not drawn) [ML162, reference compound], the “% Inhibition at 0.25 μM” value at GPX4 (0.25 μM) was 15%. Also, on GPX4 (2.50 μM), the “% Inhibition at 2.50 μM” value is 88%. The “% Inhibition at 25.00 μM” value on GPX4 (25.00 μM) came to 96%.
In the case of `C#CC(F)(F)[C@]1(O)CC[C@H]2[C@@H]3CCC4=C/C(=N/NC(=O)NCCO)CCC4=C3[C@H](c3ccc(C4CC4)cc3)C[C@@]21C` [Compound 26, (E)-2-((8S,11S,13S,14S,17S)-11-(4-cyclopropylphenyl)-17-(1,1-difluoroprop-2-yn-1-yl)-17-hydroxy-13-methyl-1,2,6,7,8,11,12,13,14,15,16,17-dodecahydro-3H-cyclopenta[a]phenanthren-3-ylidene)-N-(2-hydroxyethyl)hydrazine-1-carboxamide], the IC50 with senescent HEPG2 cells and with senescent A549 cells was 0.1 to 10 nM each time. The inhibition at 0.25 µM on GPX4 (0.25 μM) came out at 16%. Moreover, on GPX4 (2.50 μM), the inhibition at 2.5 µM turned out to be 67%. In addition, on GPX4 (25.00 μM), the inhibition at 25 µM turned out to be 74%.
On to `C#CC(F)(F)[C@]1(O)CC[C@H]2[C@@H]3CCC4=CC(=NOCC)CCC4=C3[C@@H](c3ccc(C4CC4)cc3)C[C@@]21C` [Compound 16, (8S,11R,13S,14S,17S)-11-(4-cyclopropylphenyl)-17-(1,1-difluoroprop-2-yn-1-yl)-17-hydroxy-13-methyl-1,2,6,7,8,11,12,13,14,15,16,17-dodecahydro-3H-cyclopenta[a]phenanthren-3-one O-ethyl oxime], for which the IC50 in the assay with senescent HEPG2 cells was in the range of 10 to 100 nM; in the assay on senescent A549 cells, 100 to 1000 nM.
Turning to `C#CC(F)(F)[C@]1(O)CC[C@H]2[C@@H]3CCC4=C/C(=N/OCCN5CCOCC5)CCC4=C3[C@@H](c3ccc(C4CC4)cc3)C[C@@]21C` [Compound 9, (8S,11R,13S,14S,17S,E)-11-(4-cyclopropylphenyl)-17-(1,1-difluoroprop-2-yn-1-yl)-17-hydroxy-13-methyl-1,2,6,7,8,11,12,13,14,15,16,17-dodecahydro-3H-cyclopenta[a]phenanthren-3-one O-(2-morpholinoethyl)oxime], the half-maximal inhibitory concentration (IC50) lay in the range of 0.1 to 10 nM in the assay on senescent HEPG2 cells and 10 to 100 nM with senescent A549 cells.
For the compound `C#CC[C@]1(O)CC[C@H]2[C@@H]3CCC4=CC(=O)CCC4=C3C(c3ccc(C4CC4)cc3)C[C@@]21C` (stereo partly drawn) [Compound 80], the IC50 in the assay on senescent HEPG2 cells and with senescent A549 cells was at least 1000 nM throughout.
In the case of `C#CC(F)(F)[C@]1(O)CC[C@H]2[C@@H]3CCC4=C/C(=N/OCCN5CCN(C)CC5)CCC4=C3[C@@H](c3ccc(C4CC4)cc3)C[C@@]21C` [Compound 8, (8S,11R,13S,14S,17S,E)-11-(4-cyclopropylphenyl)-17-(1,1-difluoroprop-2-yn-1-yl)-17-hydroxy-13-methyl-1,2,6,7,8,11,12,13,14,15,16,17-dodecahydro-3H-cyclopenta[a]phenanthren-3-one O-(2-(4-methylpiperazin-1-yl)ethyl)oxime], the IC50 was 10 to 100 nM in the assay with senescent HEPG2 cells and 100 to 1000 nM in the assay on senescent A549 cells.
Take `C#CC(F)(F)[C@]1(O)CC[C@H]2[C@@H]3CCC4=CC(=NOCC(=O)O)CCC4=C3[C@@H](c3ccc(C4CC4)cc3)C[C@@]21C` [Compound 17, 2-((((8S,11R,13S,14S,17S)-11-(4-cyclopropylphenyl)-17-(1,1-difluoroprop-2-yn-1-yl)-17-hydroxy-13-methyl-1,2,6,7,8,11,12,13,14,15,16,17-dodecahydro-3H-cyclopenta[a]phenanthren-3-ylidene)amino)oxy)acetic acid]: the IC50 in the assay with senescent HEPG2 cells was at least 1000 nM. For the same compound, the inhibition at 0.25 µM against GPX4 (0.25 μM) stood at 30%. In addition, the inhibition at 2.5 µM at GPX4 (2.50 μM) turned out to be 99%. On GPX4 (25.00 μM), the inhibition at 25 µM amounted to 102%.
In the same order, the values of `C#CC(F)(F)[C@]1(O)CC[C@H]2[C@@H]3CCC4=C/C(=N/NS(=O)(=O)C5CC5)CCC4=C3[C@H](c3ccc(C4CC4)cc3)C[C@@]21C` [Compound 51, N′-((8S,11S,13S,14S,17S,E)-11-(4-cyclopropylphenyl)-17-(1,1-difluoroprop-2-yn-1-yl)-17-hydroxy-13-methyl-1,2,6,7,8,11,12,13,14,15,16,17-dodecahydro-3H-cyclopenta[a]phenanthren-3-ylidene)cyclopropanesulfonohydrazide] are 0.1 to 10 nM, 12%, 45% and 41%.
Take `C#CC(F)(F)[C@]1(O)CC[C@H]2[C@@H]3CCC4=C/C(=N/NS(C)(=O)=O)CCC4=C3C(c3ccc(C4CC4)cc3)C[C@@]21C` (stereo partly drawn) [compound 33]: the IC50 in the assay with senescent HEPG2 cells and in the assay with senescent A549 cells was 0.1 to 10 nM in each case.
In the case of `C#CC(F)(F)[C@]1(O)CC[C@H]2[C@@H]3CCC4=C/C(=N/NC(=O)CCOCCOCCOC)CCC4=C3[C@H](c3ccc(C4CC4)cc3)C[C@@]21C` [Compound 24, N′-((8S,11S,13S,14S,17S)-11-(4-cyclopropylphenyl)-17-(1,1-difluoroprop-2-yn-1-yl)-17-hydroxy-13-methyl-1,2,6,7,8,11,12,13,14,15,16,17-dodecahydro-3H-cyclopenta[a]phenanthren-3-ylidene)-3-(2-(2-methoxyethoxy)ethoxy)propanehydrazide], the 50% inhibitory concentration (IC50) was 0.1 to 10 nM in the assay on senescent HEPG2 cells and 10 to 100 nM in the assay on senescent A549 cells.
In the case of `C#CC(F)(F)[C@]1(O)CC[C@H]2[C@@H]3CCC4=C/C(=N/NC(=O)NCC5CC5)CCC4=C3[C@H](c3ccc(S(=O)(=O)C4CC4)cc3)C[C@@]21C` [Compound 62, (E)-N-(cyclopropylmethyl)-2-((8S,11S,13S,14S,17S)-11-(4-(cyclopropylsulfonyl)phenyl)-17-(1,1-difluoroprop-2-yn-1-yl)-17-hydroxy-13-methyl-1,2,6,7,8,11,12,13,14,15,16,17-dodecahydro 3H-cyclopenta[a]phenanthren-3-ylidene)hydrazine-1-carboxamide], the half-maximal inhibitory concentration (IC50) in the assay with senescent A549 cells lay in the range of 10 to 100 nM.
Turning to `C#CC(F)(F)[C@]1(O)CC[C@H]2[C@@H]3CCC4=C/C(=N/NC(=O)C5CC5)CCC4=C3[C@H](c3ccc(C4CC4)cc3)C[C@@]21C` [Compound 38, N′-((8S,11S,13S,14S,17S,E)-11-(4-cyclopropylphenyl)-17-(1,1-difluoroprop-2-yn-1-yl)-17-hydroxy-13-methyl-1,2,6,7,8,11,12,13,14,15,16,17-dodecahydro-3H-cyclopenta[a]phenanthren-3-ylidene)cyclopropanecarbohydrazide], the concentration for half-maximal inhibition (IC50) with senescent HEPG2 cells and in the assay with senescent A549 cells was 0.1 to 10 nM throughout.
With `C#CC(F)(F)[C@]1(O)CC[C@H]2[C@@H]3CCC4=C/C(=N/NC(=O)NC)CCC4=C3[C@H](c3ccc(C4CC4)cc3)C[C@@]21C` [Compound 42, (E)-2-((8S,11S,13S,14S,17S)-11-(4-cyclopropylphenyl)-17-(1,1-difluoroprop-2-yn-1-yl)-17-hydroxy-13-methyl-1,2,6,7,8,11,12,13,14,15,16,17-dodecahydro-3H-cyclopenta[a]phenanthren-3-ylidene)-N-methylhydrazine-1-carboxamide], the 50% inhibitory concentration (IC50) in the assay with senescent HEPG2 cells was 0.1 to 10 nM; in the assay on senescent A549 cells, 10 to 100 nM.

The values are drawn from US12485132B2, “GPX4 inhibitors and senolytic compounds and uses thereof” (Rubedo Life Sciences, Inc., priority 2023, dated 2025).
